Source: patent publication US20220378923A1, “BET DEGRADER” (KYOWA KIRIN CO., LTD., priority 2019, published 2022)

Assays:
Assay type in all cases: cell-based
Settings in all cases: SU-DHL-4 cells, test compound 100 nmol/L, 24 hours
BRD2 = target: T1, BRD2 (Homo sapiens, UniProt P25440); test: Evaluation of BET proteolysis in SU-DHL-4 cell line by Western blotting: BRD2 (Test Example 4)
T1 construct: Changes in the amount of BRD4, BRD2 and BRD3 proteins in the SU-DHL-4 cell line; endogenous in cells; host or cells: SU-DHL-4
Method: (§1) The human DLBCL cell line SU-DHL-4 was purchased from DSMZ. SU-DHL-4 was passaged using RPMI1640 medium containing 10 vol % FBS. The culture conditions were 37° C. and 5% CO2.
Anti-BRD2 antibody: Brd2 (D8964) Rabbit mAb (Cell Signaling Technology, Cat No. #5848S)
(§2) Changes in the amount of BRD4, BRD2 and BRD3 proteins in the SU-DHL-4 cell line by the test compound (compound 1b, compound 1l or compound P3) were detected by WB. The compound P3 is a compound described as example 14 in the known Patent Document 2 (WO 2015/081284), which was synthesized according to the method described in Patent Document 2 and used in this test.
(§3) The cultured SU-DHL-4 cells were seeded at 6×10^5 cells/well in a transparent 6-well plate (Code No. 140675, Thermo Fisher Scientific). After seeding, the cells were pre-cultured at 37° C. in a carbon dioxide gas incubator for 18 to 25 hours. Next, a 0.1 mmol/L DMSO solution of the test compound was prepared, diluted so that the concentration was 200-fold of the final concentration in RPMI1640 medium containing the above FBS and PS, and 1/200 volume of the diluted solution was added to each well. At this time, the final concentration of DMSO was adjusted to be 0.1 vol %. After adding the test compound, the cells were cultured at 37° C. in a carbon dioxide gas incubator for 24 hours.
(§4) After collecting the cells, the supernatant was aspirated, and Lysis buffer 6 (R&D systems, Cat No. 895561) was added to the pellet at 0.1 mL/sample. After incubating on ice for 60 minutes, the supernatant was collected by centrifugation at 15000 rpm for 10 minutes at 4° C.
(§5) Using Pierce BCA Protein Assay Kit (Thermo Fisher, Cat No. 23225), the protein concentration of each sample was quantified according to the manual attached to the kit, and then was diluted and prepared with Lane Marker Reducing Sample Buffer (5×) (Thermo Fisher, Cat No. 39000) and Lysis buffer 6 to 1 mg/mL. The cells were incubated at 95° C. for 5 minutes to prepare WB samples. WB samples were stored at −30° C. until electrophoresis.
(§6) The WB sample was thawed and used after vortex mixing and spin down. […]

BRD3 = target: T2, BRD3 (Homo sapiens, UniProt Q15059); test: Evaluation of BET proteolysis in SU-DHL-4 cell line by Western blotting: BRD3 (Test Example 4)
T2 construct: Changes in the amount of BRD4, BRD2 and BRD3 proteins in the SU-DHL-4 cell line; endogenous in cells; host or cells: SU-DHL-4
Method: as §1
Anti-BRD3 antibody: Anti-BRD3 antibody (2088C3a) (Santa Cruz Biotechnology, Cat No. sc-81202)
as §2, §3, §4, §5, §6

BRD4 = target: T3, BRD4 (Homo sapiens, UniProt O60885); test: Evaluation of BET proteolysis in SU-DHL-4 cell line by Western blotting: BRD4 (Test Example 4)
T3 construct: Changes in the amount of BRD4, BRD2 and BRD3 proteins in the SU-DHL-4 cell line; endogenous in cells; host or cells: SU-DHL-4
Method: as §1
Anti-BRD4 antibody: BRD4 (E2A7X) Rabbit mAb (Cell Signaling Technology, Cat No. #13440S)
as §2, §3, §4, §5, §6

T2 sequence (Q15059 whole entry): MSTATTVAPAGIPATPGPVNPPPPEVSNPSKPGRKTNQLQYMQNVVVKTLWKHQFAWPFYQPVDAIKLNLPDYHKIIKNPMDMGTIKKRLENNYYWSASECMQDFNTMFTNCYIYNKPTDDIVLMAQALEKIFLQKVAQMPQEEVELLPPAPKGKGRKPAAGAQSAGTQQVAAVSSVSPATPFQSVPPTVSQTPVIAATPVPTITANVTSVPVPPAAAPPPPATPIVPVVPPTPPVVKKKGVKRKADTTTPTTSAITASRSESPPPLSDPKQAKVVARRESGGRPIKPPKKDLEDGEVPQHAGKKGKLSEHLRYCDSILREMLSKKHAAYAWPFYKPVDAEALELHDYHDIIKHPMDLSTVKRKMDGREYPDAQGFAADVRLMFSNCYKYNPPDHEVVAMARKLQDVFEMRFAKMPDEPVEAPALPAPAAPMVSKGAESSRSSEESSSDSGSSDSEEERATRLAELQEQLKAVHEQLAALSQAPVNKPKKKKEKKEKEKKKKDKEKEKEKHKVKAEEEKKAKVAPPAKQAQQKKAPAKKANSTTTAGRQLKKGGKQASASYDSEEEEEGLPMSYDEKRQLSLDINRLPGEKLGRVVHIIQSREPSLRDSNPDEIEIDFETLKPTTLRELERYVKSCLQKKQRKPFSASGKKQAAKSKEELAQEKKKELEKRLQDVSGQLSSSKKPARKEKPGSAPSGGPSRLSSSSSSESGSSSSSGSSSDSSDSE
T1 sequence (P25440 whole entry): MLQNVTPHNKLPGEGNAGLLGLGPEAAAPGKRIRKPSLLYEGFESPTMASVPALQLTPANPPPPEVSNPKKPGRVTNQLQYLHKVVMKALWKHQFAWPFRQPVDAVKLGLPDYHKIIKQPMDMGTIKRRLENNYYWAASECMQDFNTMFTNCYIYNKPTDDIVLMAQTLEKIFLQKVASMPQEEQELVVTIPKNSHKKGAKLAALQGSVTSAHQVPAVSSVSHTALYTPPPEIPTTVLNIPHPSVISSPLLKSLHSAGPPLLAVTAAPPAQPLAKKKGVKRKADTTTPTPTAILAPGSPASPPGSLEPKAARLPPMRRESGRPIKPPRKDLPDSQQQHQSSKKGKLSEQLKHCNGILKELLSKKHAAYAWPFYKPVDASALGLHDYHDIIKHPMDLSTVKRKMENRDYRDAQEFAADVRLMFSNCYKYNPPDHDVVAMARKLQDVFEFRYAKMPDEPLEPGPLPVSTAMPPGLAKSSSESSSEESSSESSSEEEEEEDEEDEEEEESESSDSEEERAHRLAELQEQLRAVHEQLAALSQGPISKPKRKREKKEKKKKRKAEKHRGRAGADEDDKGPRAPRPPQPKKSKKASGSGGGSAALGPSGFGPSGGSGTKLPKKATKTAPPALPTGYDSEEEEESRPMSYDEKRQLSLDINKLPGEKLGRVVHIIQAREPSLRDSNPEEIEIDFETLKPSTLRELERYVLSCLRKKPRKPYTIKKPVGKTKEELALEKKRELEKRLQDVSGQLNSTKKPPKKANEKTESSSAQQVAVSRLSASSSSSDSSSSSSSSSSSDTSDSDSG

| SMILES | change in amount of BRD2 protein (band in Western blotting, FIG. 1) (BRD2) | change in amount of BRD3 protein (band in Western blotting, FIG. 1) (BRD3) | change in amount of BRD4 protein (band in Western blotting, FIG. 1) (BRD4) |
| --- | --- | --- | --- |
| CCC(=O)N1c2ccccc2[C@H](Nc2ccc(C(=O)NCC(=O)CNC(=O)c3ccc(N[C@@H]4C[C@H](C)N(C(=O)CC)c5ccccc54)cc3)cc2)C[C@@H]1C [Compound 1l, N,N′-(2-Oxopropane-1,3-diyl)bis(4-{[(2S,4R)-2-methyl-1-propionyl-1,2,3,4-tetrahydroquinolin-4-yl]amino}benzamide)] | the band became faint compared with that of control | the band became faint compared with that of control | the band became faint compared with that of control |
| Cc1sc2c(c1C)C(c1ccc(C(=O)NCCCNC(=O)c3ccc(C4=N[C@@H](CC(=O)OC(C)(C)C)c5nnc(C)n5-c5sc(C)c(C)c54)cc3)cc1)=N[C@@H](CC(=O)OC(C)(C)C)c1nnc(C)n1-2 [Compound 1b, Di-tert-butyl 2,2′-[(6S,6′S)-({[propane-1,3-diylbis(azanediyl)]bis(carbonyl)}bis(4,1-phenylene))bis(2,3,9-trimethyl-6H-thieno[3,2-f][1,2,4]triazolo[4,3-a][1,4]diazepine-4,6-diyl)]diacetate] | the band became faint compared with that of control | the band became faint compared with that of control | the band became faint compared with that of control |
